According to US10765706B2, “Method of stem cell delivery into the brain during chronic disease using blood brain barrier permeabilizers” (University of South Florida, priority 2015, dated 2020):

Columns and labels:
Type in all cases: in vivo, Sprague-Dawley rats
[1] = test system: middle cerebral artery occlusion (MCAO) stroke rats; test: Motor asymmetry, chronic stroke (treatment 1 month after MCAO), FIG. 1; conditions: intra-arterial, hUCBC only 2 million cells, combination 200,000 cells + 1.1 mol/L mannitol
Protocol: (§1) Adult Sprague-Dawley rats initially received sham surgery or experimental stroke via the one-hour middle cerebral artery occlusion (MCAO) model, as disclosed in Example 2. At 1 month after the MCAO surgery, stroke animals were randomly assigned to receive human umbilical cord stem cells only (2 million viable cells), mannitol only (1.1 mol/L mannitol at 4° C.), combined human umbilical cord stem cells (200,000 viable cells) and mannitol (1.1 mol/L mannitol at 4° C.), and vehicle (phosphate buffered saline, PBS) only.
(§2) The hUCBC (Saneron CCEL Therapeutics, Inc., Tampa, Fla.) were thawed at 37° C. Cells were washed and centrifuged three times (1000 rpm for 7 minutes). Viability was determined using the trypan blue dye exclusion method and cell concentration was adjusted to 10,000 cells/μl. A minimum of 85% viability post-thaw was required for a sample to be used for transplantation. For hUCBC+BBB, 200,000 hUCB cells were suspended in 10 μl PBS in a 28-gauge Hamilton syringe. For hUCBC only, 2×10^6 cells were suspended in […] PBS. The BBB only treatment was injected as prepared. Treatments were administered by intra-arterial injection into the internal carotid artery where the embolic filament was previously inserted. Infusion rate was 1 μl per minute as determined by using a micro-infusion pump.

[2] = test system: middle cerebral artery occlusion (MCAO) stroke rats; test: Neurogenesis, chronic stroke, FIG. 7; conditions: treatment 1 month after MCAO
Protocol: as §1, §2

[3] = test system: middle cerebral artery occlusion (MCAO) stroke rats; test: Histological analysis of brain cell survival, chronic stroke, FIG. 2; conditions: treatment 1 month after MCAO
Protocol: The hUCBC (Saneron CCEL Therapeutics, Inc., Tampa, Fla.) were thawed at 37° C. Cells were washed and centrifuged three times (1000 rpm for 7 minutes). Viability was determined using the trypan blue dye exclusion method and cell concentration was adjusted to 10,000 cells/μl. A minimum of 85% viability post-thaw was required for a sample to be used for transplantation. For hUCBC+BBB, 200,000 hUCB cells were suspended in 10 μl PBS in a 28-gauge Hamilton syringe. For hUCBC only, 2×10^6 cells were suspended in XX μl PBS. The BBB only treatment was injected as prepared. Treatments were administered by intra-arterial injection into the internal carotid artery where the embolic filament was previously inserted. Infusion rate was 1 μl per minute as determined by using a micro-infusion pump.

OC[C@@H](O)[C@@H](O)[C@H](O)[C@H](O)CO [mannitol]
motor asymmetry [1]: lowered the motor asymmetry slightly
neurogenesis, increase above sham-operated rats [2]: without concomitant neurogenesis
cell survival (brain damage, peri-infarct area) [3]: significant brain damage
